Article PMC4528135, “Kinetic Investigations of the Role of Factor Inhibiting Hypoxia-inducible Factor (FIH) as an Oxygen Sensor” (The Journal of Biological Chemistry, 2015)
Values joined by “and” are separate entries in the source; they are usually repeats but may differ in a detail not shown here. Equal values may be shown once.

Tests used:
FIH [1] = target: T1, FIH (Homo sapiens, UniProt Q9NWT6); assay: Rapid quench-flow, FIH pre-steady-state product and succinate formation; type: biochemical; conditions: for Rapid quench-flow kproduct / Rapid quench-flow ksuccinate: 0.5 mM apo-FIH, 0.4 mM Fe(II), 5 mM 2OG, 1 mM substrate, 50 mM HEPES pH 7.5, O2-saturated buffer 1:1, 5 °C, quenched with 1% CF3CO2H; for Rapid quench-flow kproduct: hydroxylation by MALDI-TOF-MS, 1–3 separate experiments; for Rapid quench-flow ksuccinate: succinate by LC-MS
T1 construct: Full-length recombinant FIH, two- and three-consensus ankyrin repeats (2CA and 3CA) were produced as described; His6 (cleaved yes); made in house; host or cells: Escherichia coli BL21(DE3)
Procedure: Rapid quench-flow experiments were performed using the same conditions and preparation of the assay mixture as used in stopped-flow experiments. Rapid quench-flow equipment (TgK Scientific Ltd.) in an anaerobic glove box was used for the experiments. Samples were quenched with 1% CF3CO2H and analyzed using MALDI-TOF-MS (peptide hydroxylation) as described above or liquid chromatography-mass spectrometry (LC-MS, for succinate production). For LC-MS, chromatographic separation was performed at 50 °C using a Waters ACQUITY BEH Amide 1.7-μm, 2.1 × 100-mm column on a Waters ACQUITY^TM ultraperformance liquid chromatography system (Waters Corp., Milford, MA). The following eluents were used: mobile phase A: 10% H2O, 90% acetonitrile (v/v), 10 mM ammonium formate; mobile phase B: 50% H2O, 50% acetonitrile (v/v), 10 mM ammonium formate. The elution gradient was 0–7.0 min linear from 10 to 30% B, and 7.0–9.0 min at 10% B for re-equilibration of the column. A constant flow rate of 0.4 ml/min was used. Analytes were detected in negative ionization mode using single reaction monitoring on a Quattro triple quadrupole mass spectrometer (Waters) with a cone voltage of 15 V and a capillary voltage of 3.0 kV. The desolvation temperature was set to 250 °C, and the source temperature was set to 120 °C.
FIGURE 9. Rapid quench-flow experiments showing FIH-catalyzed hydroxylation of HIF-1/2α CAD and ARD substrates. Reaction mixtures containing anaerobic 0.5 mM apo-FIH, 0.4 mM Fe(II), 5 mM 2OG, 1 mM peptide in HEPES 50 mM (pH 7.5) were rapidly mixed with O2-saturated buffer at 5 °C in a 1:1 ratio and then quenched with 1% CF3CO2H at defined time points. The data were fitted with the function, y = a·(1 − exp(−bx)) + c. Hydroxylation levels were assessed by MALDI-TOF-MS. A, hydroxylation of HIF-1α CAD, 1CA, and tankyrase-1 peptide substrates (19- and 20-mers); B, hydroxylation of HIF-1α, HIF-2α, and tankyrase-1 35-mer peptide substrates; C, hydroxylation of 1CA, 2CA, and 3CA. Data plotted were cumulatively acquired over the course of 1–3 separate experiments.

FIH [2] = target: T1, FIH; assay: O2 dependence of FIH-catalyzed hydroxylation (hypoxia workstation); type: biochemical; conditions: for Km: FIH with the named substrate, 5 μM FIH, 500 μM peptide, 50 μM Fe(II), 1 mM 2OG, 1 mM L-ascorbate, 50 mM HEPES pH 7.5, 37 °C, hypoxia workstation at different pO2, triplicate assays, read-out: Km^app(O2)
Procedure: The O2 dependence of FIH-catalyzed reactions was determined by conducting enzymatic assays in an “In vivo 500 Hypoxia Workstation” (Ruskinn) using buffers pre-equilibrated under different pO2 values for 24 h. The O2 dependence of PHD2-catalyzed reactions was determined by conducting enzymatic assays in sealed glass vials with variable N2/O2 contents ([42]). Reactions were stopped by spotting samples onto a matrix-assisted laser desorption/ionization-time of flight mass spectrometry (MALDI-TOF-MS) target plate and immediately mixing with α-cyano-4-hydroxycinnamic acid matrix. Hydroxylation levels were assessed by MALDI-TOF-MS as described ([46]).
FIGURE 4. O2 dependence of FIH- and PHD2-catalyzed hydroxylation of HIF-1/2α. A, O2 dependence of PHD2-catalyzed hydroxylation of HIF-1/2α CODD/NODD 19-mer peptides. 4 μM PHD2, peptide (varied), 50 μM Fe(II), 2OG (varied), 4 mM L-ascorbate in HEPES 50 mM (pH 7.5) were incubated at 37 °C. The different O2 levels were maintained using mass flow controllers ([42]), and the hydroxylation levels were analyzed by MALDI-TOF-MS. B, O2 dependence of FIH-catalyzed hydroxylation of CAD HIF-1/2α 35-mer peptides. Conditions were as follows. 5 μM FIH, 500 μM peptide, 50 μM Fe(II), 1 mM 2OG, 1 mM L-ascorbate in HEPES 50 mM (pH 7.5) were incubated at 37 °C in a hypoxia work station under different pO2. […] Error bars, S.D. of triplicate assays.
FIGURE 8. Time course and O2 dependence of the FIH-catalyzed hydroxylation of HIF-α CAD and ARD substrates. Conditions were as follows. 5 μM FIH, 500 μM peptide, 50 μM Fe(II), 1 mM 2OG, 1 mM L-ascorbate in HEPES 50 mM (pH 7.5) were incubated at 37 °C. For O2 dependence studies, reactions were carried out in a hypoxic work station under different pO2 (assays at >20% O2 conducted using mass flow controllers ([42])). The different hydroxylation levels were analyzed by MALDI-TOF-MS or by LC-MS (for 2CA and 3CA). […] Error bars, S.D. of triplicate assays. A, time course of consensus ARD substrate hydroxylation (tankyrase-1 (tnkrs-1 20-mer and 35-mer) and one-consensus ankyrin repeat 20-mer (1CA)). B, time course of ARD peptide hydroxylation (one-consensus ankyrin repeat 20-mer (1CA), two ankyrin repeats (2CA), and three ankyrin repeats (3CA)). C, O2 dependence of HIF-1/2α CAD, 1CA, and tnkrs-1_35-mer hydroxylation. D, O2 dependence of 1CA, 2CA, and 3CA hydroxylation.

T1 sequence (Q9NWT6 whole entry): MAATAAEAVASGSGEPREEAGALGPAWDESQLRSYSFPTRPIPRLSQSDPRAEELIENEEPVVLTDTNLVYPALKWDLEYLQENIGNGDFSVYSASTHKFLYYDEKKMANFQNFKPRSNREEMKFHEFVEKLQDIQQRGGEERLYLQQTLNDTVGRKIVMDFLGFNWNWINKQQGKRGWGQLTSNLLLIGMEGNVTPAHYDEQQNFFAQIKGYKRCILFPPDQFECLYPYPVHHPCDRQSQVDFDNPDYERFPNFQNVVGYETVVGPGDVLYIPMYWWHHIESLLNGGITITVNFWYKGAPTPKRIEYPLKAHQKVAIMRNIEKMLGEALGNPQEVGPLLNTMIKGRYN

Row | Sequence | Rapid quench-flow kproduct (FIH [1]) | Rapid quench-flow kproduct (FIH [1]; listed as tnkrs-1_35mer) [s⁻¹] | Rapid quench-flow ksuccinate (FIH [1]) [s⁻¹] | product formation rate, fold faster than for the 20-mer (FIH [1]; rapid quench-flow, 5 °C) [fold] | Km (FIH [2]) [µM] | Rapid quench-flow kproduct (FIH [1]; listed as CAD HIF-1α35-mer) [s⁻¹] | Half-saturation of O2 (FIH [2]; FIH-catalyzed hydroxylation, hypoxia workstation, 37 °C) | Km^app(O2) fold higher than in the presence of 1CA and 2CA (FIH [2]; FIH) [fold] | product accumulation rate, fold faster than the reaction with HIF 35-mer substrates (FIH [1]; rapid quench-flow, 5 °C) [fold]
1 | AAGYNNLEVAEYLLEHGADVNAQDKGGLIPLHNAA [tnkrs-1_35-mer, 35-mer fragment of tankyrase-1, ARD substrate of FIH] | 11 ± 3 s⁻¹ | 11 | 10 ± 3 | ~7 | 50 ± 10 | – | – | – | –
2 | DESGLPQLTSYDCEVNAPIQGSRNLLQGEELLRAL [HIF-1α CAD35-mer] | 0.33 s⁻¹ | – | 0.3 ± 0.1 | – | 110 ± 30 | 0.33 ± 0.07 | 9–11 % O2 | – | –
3 | ESYLLPELTRYDCEVNVPVLGSSTLLQGGDLLRAL [HIF-2α CAD35-mer] | 0.12 ± 0.01 s⁻¹ | – | 0.11 ± 0.03 | – | 110 ± 10 | – | – | – | –
4 | GSHMGSDLGKKLLEAARAGQDDEVRILMANGADVAAKDKNGSTPLHLAARNGHLEVVKLLLEAGADVNAQDKFGKTAFDISIDNGNEDLAEILQ [3CA, recombinant three-consensus ankyrin repeat protein produced in Escherichia coli] | 0.051 s⁻¹ and 0.051 ± 0.001 s⁻¹ | – | – | – | 120 ± 20 | – | – | 2 | –
5 | HLEVVKLLLEAGADVNAQDK [1CA20-mer] | 1.3 ± 0.2 s⁻¹ | – | 0.8 ± 0.3 | – | 40 ± 10 | – | – | – | ~10
6 | SDKNGSTPLHLAARNGHLEVVKLLLEHGADVNAQDKWGKTAFDISIDNGNEDLAEILQ [2CA, recombinant two-consensus ankyrin repeat protein produced in Escherichia coli] | 0.5 ± 0.1 s⁻¹ | – | – | – | 56 ± 15 | – | – | – | –
